Reference: patent US20230159496A1, “COMPOUNDS AND METHODS FOR MODULATING SPLICING” (REMIX THERAPEUTICS INC., priority 2020, published 2023)
Where a name gives a salt, the structure may show the parent alone. Read-outs that look alike come from different tables or passages of the source.

Tests used:
Type in all cases: cell-based
HTT mRNA = assay: Splicing assay (RT-qPCR) monitoring HTT canonical junction (CJ) and alternative junction (AJ) mRNA isoforms
Experimental: Compounds described herein were used to modulate RNA transcript abundance in cells. The expression of a target mRNA was measured by detecting the formation of an exon-exon junction in the canonical transcript (CJ). A compound mediated exon-inclusion event was detected by observing an increase in formation of a new junction with an alternative exon (AJ). Real-time qPCR assays were used to detect these splicing switches and interrogate the potency of various compounds towards different target genes. A high-throughput real time quantitative PCR (RT-qPCR) assay was developed to measure these two isoforms of the mRNA (CJ and AJ) for an exemplary gene, HTT, together with a control housekeeping gene, GAPDH or GUSB or PPIA, used for normalization. Briefly, the A673 or K562 cell line was treated with various compounds described herein (e.g., compounds of Formula (I)). After treatment, the levels of the HTT mRNA targets were determined from each sample of cell lysate by cDNA synthesis followed by qPCR.
• Cells-to-CT 1-step kit: ThermoFisher A25602, Cells-to-CT lysis reagent: ThermoFisher 4391851C, TaqMan™ Fast Virus 1-Step Master Mix: ThermoFisher 4444436 • GAPDH: VIC-PL, ThermoFisher 4326317E (Assay: Hs99999905_m1)—used for K562/suspension cell lines • GUSB: VIC-PL, ThermoFisher 4326320E (Assay: Hs99999908_m1)—used for K562/suspension cell lines • PPIA: VIC-PL, ThermoFisher 4326316E (Assay: Hs99999904_m1) — used for A673/adherent cell lines
The A673 cell line was cultured in DMEM with 10% FBS. Cells were diluted with full growth media and plated in a 96-well plate (15,000 cells in 100 ul media per well). The plate was incubated at 37° C. with 5% CO2 for 24 hours to allow cells to adhere. An 11-point 3-fold serial dilution of the compounds was made in DMSO then diluted in media in an intermediate plate. Compounds were transferred from the intermediate plate to the cell plate with the top dose at a final concentration of 10 uM in the well. Final DMSO concentration was kept at or below 0.25%. The cell plate was returned to the incubator at 37° C. with 5% CO2 for an additional 24 hours.
The K562 cell line was cultured in IMDM with 10% FBS. For K562, cells were diluted with full growth media and plated in either a 96-well plate (50,000 cells in 50 uL media per well) or a 384-well plate (8,000-40,000 cells in 45 uL media per well). An 11-point 3-fold serial dilution of the compounds were made in DMSO then diluted in media in an intermediate plate. Compound was transferred from the intermediate plate to the cell plate with the top dose at a final concentration of 10 uM in the well. Final DMSO concentration was kept at or below 0.25%. Final volume was 100 uL for 96-well plate and 50 uL for 384-well plate. The cell plate was then placed in an incubator at 37° C. with 5% CO2 for 24 hours.
The cells were then gently washed with 50 uL-100 uL cold PBS before proceeding to addition of lysis buffer. 30 uL-50 uL of room temperature lysis buffer with DNAse I (and optionally RNAsin) was added to each well. Cells were shaken/mixed thoroughly at room temperature for 5-10 minutes for lysis to take place and then 3 uL-5 uL of room temperature stop solution was added and wells were shaken/mixed again. After 2-5 minutes, the cell lysate plate was transferred to ice for RT-qPCR reaction setup. The lysates could also be frozen at −80° C. for later use.
In some cases, a direct lysis buffer was used. An appropriate volume of 3× lysis buffer (10 mM Tris, 150 mM NaCl, 1.5%-2.5% Igepal and 0.1-1 U/uL RNAsin, pH 7.4) was directly added to either K562 or A673 cells in media and mixed by pipetting 3 times. The plates were then incubated at room temperature with shaking/rocking for 20-50 minutes to allow for lysis to take place. After this time, the cell lysate plate was transferred to ice to set up for the RT-qPCR reactions. The lysates could also be frozen at −80° C. for later use. […]

HTT CJ mRNA = assay: Gene panel canonical junction qPCR assay, HTT; conditions: read-out: HTT IC50
Experimental: (§1) The expression of a target mRNA was measured by detecting the formation of an exon-exon junction in the canonical transcript (CJ). A compound mediated exon-inclusion event was detected by observing an increase in formation of a new junction with an alternative exon (AJ). Real-time qPCR assays were used to detect these splicing switches and interrogate the potency of various compounds towards different target genes. A high-throughput real time quantitative PCR (RT-qPCR) assay was developed to measure these two isoforms of the mRNA (CJ and AJ) for an exemplary gene, HTT, together with a control housekeeping gene, GAPDH or GUSB or PPIA, used for normalization. Briefly, the A673 or K562 cell line was treated with various compounds described herein (e.g., compounds of Formula (I)). After treatment, the levels of the HTT mRNA targets were determined from each sample of cell lysate by cDNA synthesis followed by qPCR. The A673 cell line was cultured in DMEM with 10% FBS. Cells were diluted with full growth media and plated in a 96-well plate (15,000 cells in 100 ul media per well). The plate was incubated at 37° C. with 5% CO2 for 24 hours to allow cells to adhere. An 11-point 3-fold serial dilution of the compounds was made in DMSO then diluted in media in an intermediate plate. Compounds were transferred from the intermediate plate to the cell plate with the top dose at a final concentration of 10 uM in the well. Final DMSO concentration was kept at or below 0.25%. The cell plate was returned to the incubator at 37° C. with 5% CO2 for an additional 24 hours. The K562 cell line was cultured in IMDM with 10% FBS. For K562, cells were diluted with full growth media and plated in either a 96-well plate (50,000 cells in 50 uL media per well) or a 384-well plate (8,000-40,000 cells in 45 uL media per well). An 11-point 3-fold serial dilution of the compounds were made in DMSO then diluted in media in an intermediate plate. Compound was transferred from the intermediate plate to the cell plate with the top dose at a final concentration of 10 uM in the well. Final DMSO concentration was kept at or below 0.25%. Final volume was 100 uL for 96-well plate and 50 uL for 384-well plate. The cell plate was then placed in an incubator at 37° C. with 5% CO2 for 24 hours. The cells were then gently washed with 50 uL-100 uL cold PBS before proceeding to addition of lysis buffer. 30 uL-50 uL of room temperature lysis buffer with DNAse I (and optionally RNAsin) was added to each well. Cells were shaken/mixed thoroughly at room temperature for 5-10 minutes for lysis to take place and then 3 uL-5 uL of room temperature stop solution was added and wells were shaken/mixed again. After 2-5 minutes, the cell lysate plate was transferred to ice for RT-qPCR reaction setup. The lysates could also be frozen at −80° C. for later use. In some cases, a direct lysis buffer was used. An appropriate volume of 3× lysis buffer (10 mM Tris, 150 mM NaCl, 1.5%-2.5% Igepal and 0.1-1 U/uL RNAsin, pH 7.4) was directly added to either K562 or A673 cells in media and mixed by pipetting 3 times. The plates were then incubated at room temperature with shaking/rocking for 20-50 minutes to allow for lysis to take place. After this time, the cell lysate plate was transferred to ice to set up for the RT-qPCR reactions. The lysates could also be frozen at −80° C. for later use. To set up 10 uL RT-qPCR reactions, cell lysates were transferred to 384-well qPCR plates containing the master mix according to the table below. The plates were sealed, gently vortexed, and spun down before the run. The volumes were adjusted accordingly in some instances where the reaction was carried in 20 uL. The table below summarizes the components of the RT-qPCR reactions: The RT-qPCR reaction was performed using a QuantStudio (ThermoFisher) under the following fast cycling conditions. All samples and standards were analyzed at least in duplicate.

SMN2 CJ mRNA = assay: Gene panel canonical junction qPCR assay, SMN2; conditions: read-out: SMN2 IC50
Experimental: as §1

Target C CJ mRNA = assay: Gene panel canonical junction qPCR assay, Target C; conditions: read-out: Target C IC50
Experimental: as §1

[1] = decrease in CJ mRNA (50% response), A673 or K562 cells, 24 h treatment, top dose 10 uM, read-out: HTT CJ AC50
[2] = increase in AJ mRNA (50% response), A673 or K562 cells, 24 h treatment, top dose 10 uM, read-out: HTT AJ AC50
[3] = decrease in CJ mRNA levels, gene panel

Row | SMILES | AC50 (HTT mRNA; [1]) [nM] | AC50 (HTT mRNA; [2]) [nM] | IC50 (HTT CJ mRNA; [3]) [µM] | IC50 (SMN2 CJ mRNA; [3]) [µM] | IC50 (Target C CJ mRNA; [3]) [µM] | AC50 (HTT mRNA; 24 h, read-out: HTT AJ AC50 (nM)) [nM] | AC50 (HTT mRNA; 24 h, read-out: HTT CJ AC50 (nM)) [nM] | IC50 (HTT CJ mRNA) [µM] | IC50 (SMN2 CJ mRNA) [µM] | IC50 (Target C CJ mRNA) [µM]
1 | Cn1cc2cc(-n3cnc4cc(C5=CC6CCC(C5)N6)ccc4c3=O)ccc2n1 (stereo not drawn) [Compound 160, 7-(8-azabicyclo[3.2.1]oct-2-en-3-yl)-3-(2-methyl-2H-indazol-5-yl)quinazolin-4(3H)-one] | > 10000 | > 10000 | > 10 | > 10 | > 10 |  |  |  |  | 
2 | CN1C2C=C(c3ccc4c(=O)n(-c5ccc6nn(C)cc6c5)cnc4c3)CC1CC2 (stereo not drawn) [Compound 161, 3-(2-methyl-2H-indazol-5-yl)-7-(8-methyl-8-azabicyclo[3.2.1]oct-2-en-3-yl)quinazolin-4(3H)-one] | > 10000 | > 10000 | > 10 | > 10 | > 10 |  |  |  |  | 
3 | CN1CCC(Nc2ccc3c(=O)n(-c4ccc5nn(C)cc5c4)cnc3c2)CC1 [Compound 163, 3-(2-methyl-2H-indazol-5-yl)-7-((1-methylpiperidin-4-yl)amino)quinazolin-4(3H)-one] |  |  |  |  |  | > 10000 | > 10000 | > 10 | > 10 | > 10
4 | Cc1cc(-c2ccc3nc(N4CCNCC4)[nH]c(=O)c3c2)cc2cn(C)nc12 [Compound 166, 6-(2,7-dimethyl-2H-indazol-5-yl)-2-(piperazin-1-yl)quinazolin-4(3H)-one] | 1000 to 10000 | 1000 to 10000 | 1 to 10 | 1 to 10 | 1 to 10 |  |  |  |  | 
5 | Cc1cc(-c2ccc3nc(NC4CCN(C)CC4)[nH]c(=O)c3c2)cc2cn(C)nc12 [Compound 167] | > 10000 | > 10000 | > 10 | > 10 | > 10 |  |  |  |  | 
6 | Cn1cc2cc(-n3cnc4cc(C5CCNCC5)ccc4c3=O)ccc2n1 [Compound 172, 3-(2-methyl-2H-indazol-5-yl)-7-(piperidin-4-yl)quinazolin-4(3H)-one] | > 10000 | > 10000 | > 10 | > 10 | > 10 |  |  |  |  | 
7 | Cc1cc(-c2ccc3c(=O)n(N4CCN(C)CC4)cnc3c2)cc2cn(C)nc12 [Compound 175, 7-(2,7-dimethyl-2H-indazol-5-yl)-3-(4-methylpiperazin-1-yl)quinazolin-4(3H)-one] | > 10000 | 1000 to 10000 | 1 to 10 | 1 to 10 | > 10 |  |  |  |  | 
8 | Cc1cn2nc(-c3ccc4c(=O)n(C5CCN(C)CC5)cnc4c3)cc(C)c2n1 [Compound 176, 7-(2,8-dimethylimidazo[1,2-b]pyridazin-6-yl)-3-(1-methylpiperidin-4-yl)quinazolin-4(3H)-one] | 1000 to 10000 | 1000 to 10000 | 1 to 10 | 0.1 to 1 | 1 to 10 |  |  |  |  | 
9 | CN1CCC(c2ccc3c(=O)n(-c4ccc5nn(C)cc5c4)cnc3c2)CC1 [Compound 177, 3-(2-methyl-2H-indazol-5-yl)-7-(1-methylpiperidin-4-yl)quinazolin-4(3H)-one] | > 10000 | > 10000 | > 10 | > 10 | 1 to 10 |  |  |  |  | 
10 | CN1CCN(c2ccc3c(=O)n(-c4ccc5cn(C)nc5c4)cnc3c2)CC1 [Compound 178, 3-(2-methyl-2H-indazol-6-yl)-7-(4-methylpiperazin-1-yl)quinazolin-4(3H)-one] | > 10000 | > 10000 | > 10 | > 10 | > 10 |  |  |  |  | 
11 | Cc1cc(-c2ccc3c(=O)n(C4CC(C)(C)NC(C)(C)C4)cnc3n2)cc2cn(C)nc12 [Compound 179] | > 10000 | > 10000 | > 10 | 1 to 10 | > 10 |  |  |  |  | 
12 | CN(c1ccc2c(=O)n(-c3ccc4nn(C)cc4c3)cnc2c1)C1CCNCC1 [Compound 180, 7-(methyl(piperidin-4-yl)amino)-3-(2-methyl-2H-indazol-5-yl)quinazolin-4(3H)-one, hydrochloride] | > 10000 | > 10000 | > 10 | > 10 | 1 to 10 |  |  |  |  | 
